Reference: paper PMC9017425, “Integrative Analysis of Pharmacokinetic and Metabolomic Profiles for Predicting Metabolic Phenotype and Drug Exposure Caused by Sotorasib in Rats” (Frontiers in Oncology, 2022)
Where two headings read alike, the source gives them in different places.

Assays:
[1] = Pharmacokinetic study of sotorasib in rats after oral administration (HPLC-MS/MS of plasma); assay type: in vivo; conditions: male, Sprague-Dawley, rat
Procedure: For the PK study, a chromatographic system of Shimadzu LC-20ADXR (Kyoto, Japan) coupled with a mass spectrometer (QTRAP 5500; SCIEX, Concord, Canada) was utilized for chromatographic separation and mass quantitation ([19]). The column temperature was set to 40°C on a reversed-phase C18 column (50 mm × 2.1 mm i.d., 3.5 μm) (XBrige; Waters, Milford, MA, USA), and the total run time was 3.0 min. Both mobile phases contained 0.1% formic acid. Gradient elution was adopted to comply with the compounds’ baseline separation (0–0.1 min, 90% water phase; 0.1–1.2 min, 10% water phase; 1.2–2.2 min, 0% water phase; and 2.2–3.0 min, 90% water phase). The flow rate was fixed at 0.4 ml/min with an injection volume of 2 μl. A time-efficient washing procedure composed of MeOH/water/ACN/IPA (1:1:1:1, v/v/v/v) was applied during the entire analyses. Multiple reaction monitoring (MRM) was utilized with the following parameters: ion spray voltage, 5,500 V; temperature, 550°C; curtain gas, 20.0 psi; ion source, gas 1 at 55.0 psi; and turbo ion source, gas 2 at 55.0 psi. A proton adduct [M+H]^+ ion and double MRM transitions were used, which were set at m/z 561.4→317.1 (qualifier) and m/z 561.4→134.1 (quantifier) for sotorasib and at 237.0→194.1 for the IS.
During the PK study, all unknown plasma samples were mixed for 1 min and 20 μl aliquot of plasma was pipetted into an Eppendorf centrifuge tube. Protein precipitation was adopted for the preparation of the sample. After the addition of 10 μl IS working solution (10 ng/ml) and 80 μl MeOH, proteins were extracted by vortex mixing for approximately 30 s. The supernatant was centrifuged at 13,500 rpm for 10 min at 4°C. The extraction solutions were then pipetted into autosampler vials.
Six Sprague–Dawley rats (180–220 g, 8-week-old males; animal license: SCXK-2019-0008) were purchased from Beijing Vital River Laboratory Animal Technologies Co., Ltd. (Beijing, China). All rats were fed in a specific pathogen-free (SPF) conditioned room to allow acclimatization for 1 week. Animal experiments were implemented in line with the Guidelines for the Care and Use of Laboratory Animals, and animal ethics was approved by Beijing Chao-Yang Hospital, Capital Medical University. Rats were orally administered sotorasib dissolved with 1% Tween-80 and 2% hydroxypropyl methylcellulose (HPMC) in water at a dose of 10 mg/kg. Biological samples (approximately 500 μl) were collected from ophthalmic veins into heparin-anticoagulated collection tubes before administration and at 15 min, 30 min, and 1, 1.5, 2, 2.5, 3, 4, and 8 h after administration. Plasma samples were acquired by direct centrifugation at 3,500 rpm for 10 min at 4°C.
Raw data files were processed and checked using Analyst 1.6.3 and MultiQuant 3.0.1 (SCIEX, Concord, Canada). The concentrations of the analytes were calculated according to the calibration curve. Pharmacokinetic parameters, such as C max and the area under the curve (AUC), were calculated using Phoenix WinNonLin software (Pharsight 8.3, Mountain View, CA, USA). Pearson’s correlation was employed to investigate the correlation between the metabolomic data and PK parameters using IBM SPSS 26.0 (Armonk, NY, USA). SIMCA-P software (v14.1; Umetric, Umeå, Sweden) was employed to build mathematical models, including unsupervised principal component analysis (PCA), supervised orthogonal projection to latent structures discriminant analysis (OPLS-DA), and partial least squares (PLS). Compounds with values of variable importance in the projections (VIP) >1 and statistical significance of p < 0.05 were selected for further identification and metabolic pathway analysis. One hundred or 200 random permutation tests were employed to examine overfitting and random effects, which can assess the predictive ability of the model. Meanwhile, significant variables with p < 0.05 and fold change (FC) >2 or <0.5 were considered potential biomarkers. […]

[2] = Stability of sotorasib in rat plasma QC samples under different storage conditions; assay type: in vitro ADME; conditions: for Post-preparation stability, measured concentration Mean ± SD / Room temperature stability, measured concentration Mean ± SD / Freeze–thaw stability, measured concentration Mean ± SD / Long-term stability, measured concentration Mean ± SD: n = 6; for Room temperature stability, measured concentration Mean ± SD: rat plasma, ambient temperature; for Freeze–thaw stability, measured concentration Mean ± SD: three cycles −80°C to ambient temperature; for Long-term stability, measured concentration Mean ± SD: −80°C for 3 months
Excerpt: Stability was investigated at LQC and HQC concentrations in six replicates. […] If the %Bias is within ±15%, the stability is considered acceptable.

[3] = Working solution stability of sotorasib; assay type: physicochemical; conditions: −80°C for 10 days, n = 6
Procedure: Stock solutions of sotorasib and IS were equipped using ACN at a concentration of 1.0 mg/ml and further diluted for the calibration standards and quality control (QC) samples at a final concentration of 500 µg/ml separately. The working IS solution was prepared in MeOH at a concentration of 10 ng/ml. The working calibration solutions of sotorasib were completed in dilution (MeOH/water = 1:1, v/v) to obtain concentrations of 5, 10, 20, 50, 100, 100, 200, 500, 1,000, 2,000, and 5,000 ng/ml. Similarly, the QC working solutions of analytes were prepared to obtain final concentrations of 10, 200, and 4,000 ng/ml. All solutions were stored in a −80°C freezer pending analysis. For the PK study, calibrations were made in blank rat plasma to achieve a nominal concentration range of 0.5–500 ng/ml. QC plasma samples were prepared in blank rat plasma at nominal concentrations of 1, 20, and 400 ng/ml. Stability was investigated at LQC and HQC concentrations in six replicates. The stability conditions incorporated the short-term (at ambient temperature for 24 h), freeze–thaw (−80°C to ambient temperature, three sequential cycles), post-preparation (autosampler, 24 h), and long-term (−80°C for 3 months) status. If the %Bias is within ±15%, the stability is considered acceptable.

[4] = set-up: method as in PMID 33957355; conditions: mice, single oral 20 mg/kg; cited from earlier work
[5] = set-up: method as in PMID 33283304; conditions: oral administration, 50 mg/kg; cited from earlier work
[6] = rats, 10 mg/kg, n = 6, mean ± SD

concentration at 15 min ([1]; 10-mg/kg dose, 15 min after administration, single sample, read-out: plasma concentration of an unknown sample): 298 ng/mL
AUC(0-inf) [1, 6]: 463 ± 167 ng·h/mL
AUC(0-t) [1, 6]: 457 ± 165 ng·h/mL
Cmax [1, 6]: 227 ± 98.8 ng/mL
half-life [1, 6]: 74.4 ± 13.2 min
CL/F ([1]; rats, 10 mg/kg, n = 6, mean ± SD, read-out: CL_F (apparent clearance) (converted)): 400 mL/min/kg
MRT ([1]; rats, 10 mg/kg, n = 6, mean ± SD, read-out: MRT (mean residence time)): 113 ± 10.8 min
Vd/F ([1]; rats, 10 mg/kg, n = 6, mean ± SD, read-out: Vz_F (apparent volume of distribution)): 43.3 ± 17.9 L/kg
Tmax ([1]; rats, 10 mg/kg, n = 6, median (range)): 30 min
stability under several storage conditions in plasma or in solution ([2]; ambient temperature 6 h, three freeze–thaw cycles, autosampler 24 h, working solution −80°C 10 days, −80°C 3 months): stable
Post-preparation stability, measured concentration Mean ± SD ([2]; nominal 1 ng/ml, autosampler 24 h): 1.07 ± 0.06 ng/mL
Room temperature stability, measured concentration Mean ± SD ([2]; nominal 1 ng/ml): 1.03 ± 0.10 ng/mL
Freeze–thaw stability, measured concentration Mean ± SD ([2]; nominal 1 ng/ml): 1.06 ± 0.07 ng/mL
Long-term stability, measured concentration Mean ± SD ([2]; nominal 1 ng/ml): 1.01 ± 0.07 ng/mL
Post-preparation stability, measured concentration Mean ± SD ([2]; nominal 400 ng/ml, autosampler 24 h): 441.20 ± 10.76 ng/mL
Room temperature stability, measured concentration Mean ± SD ([2]; nominal 400 ng/ml): 434.00 ± 8.07 ng/mL
Freeze–thaw stability, measured concentration Mean ± SD ([2]; nominal 400 ng/ml): 448.60 ± 6.19 ng/mL
Long-term stability, measured concentration Mean ± SD ([2]; nominal 400 ng/ml): 399.67 ± 20.10 ng/mL
Working solution stability, measured concentration Mean ± SD ([3]; nominal 1 ng/ml): 1.034 ± 0.08 ng/mL
Working solution stability, measured concentration Mean ± SD ([3]; nominal 400 ng/ml): 409.37 ± 37.98 ng/mL
SMILES: C=CC(=O)N1CCN(c2nc(=O)n(-c3c(C)ccnc3C(C)C)c3nc(-c4c(O)cccc4F)c(F)cc23)[C@@H](C)C1 [Sotorasib]
AUC0–4 [4]: 3,766 ± 896 ng·h/ml
C max [4]: 4,231 ± 1,208 ng/ml
T max [4]: 12.6 ± 3.6 min
t 1/2 [4]: 36 ± 3.6 min
time in which C max was achieved [4]: < 15 min
AUC0–∞ [5]: 170 ng·h/mL
C max [5]: 123 ng/mL
T max [5]: 15 min
t 1/2 [5]: 114 min
